One assay concerns the target T1, CXCR3 (Homo sapiens, UniProt P49682).
T1 construct: purchased Promega (in-house HiBiT-GPCR construct library, NanoBRET)
T1 sequence (P49682 1-368): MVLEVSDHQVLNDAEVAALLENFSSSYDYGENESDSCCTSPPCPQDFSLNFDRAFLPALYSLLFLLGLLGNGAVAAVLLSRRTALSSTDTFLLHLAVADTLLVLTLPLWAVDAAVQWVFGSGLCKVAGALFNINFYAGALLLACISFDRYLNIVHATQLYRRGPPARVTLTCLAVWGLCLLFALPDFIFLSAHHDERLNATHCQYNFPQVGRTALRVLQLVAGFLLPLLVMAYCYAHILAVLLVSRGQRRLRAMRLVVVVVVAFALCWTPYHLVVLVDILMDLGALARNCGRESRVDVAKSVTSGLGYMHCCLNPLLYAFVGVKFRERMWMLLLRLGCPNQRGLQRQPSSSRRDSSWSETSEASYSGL
The experiment in a line: NanoBRET screen HiBiT-CXCR3 in HEK293. The format is binding. The method, then: (§1) Each tracer candidate was screened across the entire library of HiBiT-GPCR constructs using NanoBRET as the detection modality. As depicted in Figure 4A, the specificity of interactions was evaluated through decrease in BRET due to competitive displacement of a bound tracer by excess parental compound. Each tracer was analyzed for binding to each HiBiT-GPCR fusion in the absence and in the presence of competing parental compound. Briefly, HEK293 cells were transfected with HiBiT-GPCR constructs diluted into promoterless DNA to reduce expression and maximize translocation to the cell surface. Each tracer candidate was then screened at concentrations of 1 μM and 0.1 μM across cells expressing these fusions. Cells were treated for 1.5 h with tracer either alone or in the presence of 20 μM competing parental compound (i.e., control). BRET was measured upon addition of purified LgBiT and subsequent complementation with HiBiT genetically fused to a GPCR. The specificity of interactions was assessed through a decrease in BRET signal due to competitive displacement of the bound tracer. To further gauge the robustness of these interactions, the fold response over the control (i.e., BRETtracer/BRETcontrol) was calculated. We chose a 1.5-fold response, which translates to ≥7-fold signal over noise as the minimal threshold required to score an interaction as positive. […]. Below we highlight the screening results obtained for our exemplary fluorescent tracers based on Clozapine, Amitriptyline and AZD1283.
(§2) HiBiT-GPCR DNA constructs were diluted in 10 mM Tris pH 8 to a final concentration of 0.01 μg/μL, arrayed in 96-well plates and stored at −20 °C. For transfection, HEK293 cells were suspended in Opti-MEM (without phenol red) supplemented with 2% fetal bovine serum (Seradigm) and 100 units/mL penicillin–streptomycin (Gibco) at a final concentration of 220,000 cells/mL and dispensed into white 96-well plates at 90 μL/well. Subsequent transfections and screens were carried using an Agilent Bravo Automated Liquid Handling Platform. First, the 96-well HiBiT DNA arrays were diluted 25-fold in Opti-MEM (without serum or phenol red) to a final concentration of 0.0004 μg/μL and 20 μL of the diluted DNAs were transferred into new 96-well plates. Next, promoterless carrier DNA (1 μg/μL) was diluted 25-fold (0.04 μg/μL) and then dispensed into the diluted arrays at 20 μL/well. Following brief mixing, Viafect transfection reagent (Promega) diluted 16-fold into Opti-MEM was dispensed into the plates at 40 μL/well. After mixing by pipetting, plates were incubated for 10 min on the pipetting station deck. The DNA-transfection reagent complexes were then added to plates containing cells. To facilitate the screen, 10 μL of DNA-transfection reagent complexes were added in duplicates to the top 4 and bottom 4 rows, resulting in two identical 48-well arrays per plate. Plates with transfected cells were incubated for 18–20 h at 37 °C/5% CO2. A screen of each tracer across the entire library using two different concentrations requires duplicate plates of transfected cells. Depending on the number of tracers being screened, transfections can be scaled up using the same ratios. The next day, for each tracer, four 20× screening solutions in tracer dilution buffer (Promega) were prepared: two duplicates at final concentration of 20 μM and two duplicates at a final concentration of 2 μM. A competing unmodified compound was added to one of each duplicate at a final concentration of 400 μM. The four resulting solutions were diluted 4-fold in Opti-MEM without serum or phenol red to generate 5× solutions (5 µM and 0.5 µM tracer +/− 100 μM competing compound). To screen the library, a BioTek MultiFlo FX liquid dispenser was used to dispense 22.5 µL of tracer solution to the top 4 rows and 22.5 µL tracer + competing compound solution to the 4 bottom rows. Plates were briefly mixed on an orbital shaker and incubated for 1.5 h at room temperature. […]
Background: Bioluminescence resonance energy transfer reports proximity on the nanometre scale.

A further assay concerns the target T2, CXCR5 (Homo sapiens, UniProt P32302).
T2 construct: purchased Promega (in-house HiBiT-GPCR construct library, NanoBRET)
T2 sequence (P32302 1-372): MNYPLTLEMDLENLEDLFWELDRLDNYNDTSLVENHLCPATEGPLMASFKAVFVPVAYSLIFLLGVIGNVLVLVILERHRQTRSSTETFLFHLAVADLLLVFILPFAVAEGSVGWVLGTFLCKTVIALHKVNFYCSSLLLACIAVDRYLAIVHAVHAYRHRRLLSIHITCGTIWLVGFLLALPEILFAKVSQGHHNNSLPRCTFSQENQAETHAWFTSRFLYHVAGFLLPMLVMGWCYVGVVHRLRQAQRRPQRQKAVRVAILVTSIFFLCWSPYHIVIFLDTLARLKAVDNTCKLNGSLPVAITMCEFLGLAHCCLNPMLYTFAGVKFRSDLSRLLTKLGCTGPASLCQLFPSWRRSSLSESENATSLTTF
Kind of assay: NanoBRET screen HiBiT-CXCR5 in HEK293. The format is binding. The method, then:
as §1, §2

Where [1] appears, read: tracer at 0.1μM, listed as amitriptyline-b-2-NB590.
The mark [2] stands for this setting: tracer at 1μM, listed as amitriptyline-b-2-NB590.

For `CN(C)CCC=C1c2ccccc2CCc2ccc(C(=O)NCCNC(=O)CCOCCOCCOCCOCCNC(=O)CCc3ccc4n3[B-](F)(F)[N+]3=C(c5ccc[nH]5)C=CC3=C4)cc21` [Amitriptyline-a-2-NB590], the “NanoBRET Fold Response” value is on record as 1.00 on CXCR3 (tracer at 0.1μM), 0.97 on CXCR3 (tracer at 1μM), 1.04 on CXCR5 (tracer at 0.1μM) and 1.01 at CXCR5 (tracer at 1μM).
With `Cc1cc2c(s1)Nc1ccccc1N=C2N1CCN(CCCNC(=O)CCOCCOCCOCCOCCNC(=O)CCc2ccc3n2[B-](F)(F)[N+]2=C(c4ccc[nH]4)C=CC2=C3)CC1` [Olanzapine-a-2-NB590], the “NanoBRET Fold Response” value on CXCR3 (CXCR3, tracer 0.1μM) is reported as 1.05; on CXCR3 (CXCR3, tracer 1μM), 0.89; at CXCR5 (CXCR5, tracer 0.1μM), 0.98; at CXCR5 (CXCR5, tracer 1μM), 0.86.
The like results for `N#CN=C(NCCCOc1cccc(CN2CCCCC2)c1)NCCNC(=O)CCOCCOCCOCCOCCNC(=O)CCc1ccc2n1[B-](F)(F)[N+]1=C(c3ccc[nH]3)C=CC1=C2` [Aminopotentidine-2-NB590] were, in that order, 1.33, 1.05, 1.04 and 0.99.
Take `Cc1nc2n(c(=O)c1CCN1CCC(c3noc4cc(F)ccc34)CC1)CCCC2OC(=O)NCCOCCOCCOCCOCCNC(=O)CCc1ccc2n1[B-](F)(F)[N+]1=C(c3ccc[nH]3)C=CC1=C2` (centres unmarked) [Risperidone-2-NB590]: the “NanoBRET Fold Response” value at CXCR3 (CXCR3, tracer 0.1μM) is listed as 1.06; at CXCR3 (CXCR3, tracer 1μM), 0.91; at CXCR5 (CXCR5, tracer 0.1μM), 1.10; at CXCR5 (CXCR5, tracer 1μM), 0.93.
`CN(C)CCC=C1c2ccccc2CCc2ccc(C(=O)NCCNC(=O)CCOCCOCCOCCOCCNC(=O)CCc3ccc4n3[B-](F)(F)[N+]3=C(c5ccc[nH]5)C=CC3=C4)cc21` [Amitriptyline-b-2-NB590]: the “NanoBRET Fold Response” value came to 1.05 on CXCR3 (setting [1]), 0.98 at CXCR3 (setting [2]), 1.39 at CXCR5 (setting [1]) and 1.19 at CXCR5 (setting [2]).

Source of the values: publication PMC8151276, “An Integrated Approach toward NanoBRET Tracers for Analysis of GPCR Ligand Engagement” (Molecules, 2021).
